The subject of data set [1] is Trypanosoma cruzi. As to the kind of experiment: microbe, parasite or virus in culture. To be noted: Trypanosoma cruzi, Tulahuen LacZ, Clone C4. The format is functional, organism-based, Tulahuen LacZ, Clone C4.
Data set [2] relates to Trypanosoma cruzi. As to the kind of experiment: microbe, parasite or virus in culture. To be noted: Trypanosoma cruzi, Tulahuen LacZ, Clone C4. The format is functional, Tulahuen LacZ, Clone C4.
The nature of data set [3]: DNDI: Cytotoxicity against L-6 rat myoblasts from skeletal muscle cells. The note with it: L6 rat skeletal muscle myoblast cells, IC50.

Structures are written as SMILES.

Experimental findings from ChEMBL document CHEMBL1862790, “Optimisation of fenarimol series for the treatment of Chagas disease” are described below.

What is called IC50 is the concentration that gives 50% inhibition. Broadly, the IC90 is the point of the concentration-response curve where the effect stands at 90%.

In the case of `CC(C)(C)NC(=O)N1CCC(NC(c2ccc(C(F)(F)F)cc2)c2cncs2)CC1` (stereo not drawn), the results for the IC50 (in the data set with Trypanosoma cruzi [1]; in data set [3]) were 68 nM and more than 100 µM, respectively. The molecule also returned an IC90 in the data set on Trypanosoma cruzi [2] of 128 nM.
On the same counts, the results for `Cc1cnc(N2CCC(NC(c3ccc(C(F)(F)F)cc3)c3cccnc3)CC2)s1` (stereo not drawn) are 29 nM, 59.9 µM and 101 nM.
Consider `Cn1ccnc1C(=O)N1CCC(NC(c2ccc(C(F)(F)F)cc2)c2cccnc2)CC1` (stereo not drawn), for which the values for the IC50 (in the data set with Trypanosoma cruzi [1]; in data set [3]) were 81.5 nM and more than 100 µM, respectively. In the data set on Trypanosoma cruzi [2], this molecule showed an IC90 of 208 nM.
Take `OC(c1ccc(C(F)(F)F)cc1)(c1cncc(Cl)c1)c1ccc(Cl)cc1F` (stereo not drawn): the IC50 with Trypanosoma cruzi [1] was more than 1000 nM; in data set [3], 78.7 µM. Further, the IC90 with Trypanosoma cruzi [2] was more than 1000 nM.
For `CCn1nc(C)cc1C(=O)N1CCC(NC(c2ccc(C(F)(F)F)cc2)c2cccnc2)CC1` (stereo not drawn), the IC50 was 70.5 nM with Trypanosoma cruzi [1] and more than 100 µM in data set [3]. This molecule had a concentration for an effect of 90% (IC90) with Trypanosoma cruzi [2] of 206 nM.
With `CCn1nc(C)cc1C(=O)NC1CCN(C(c2ccc(C#N)cc2)c2cccnc2)CC1` (stereo not drawn), the results for the 50% inhibitory concentration (IC50) (in the data set on Trypanosoma cruzi [1]; in data set [3]) were 504 nM and more than 100 µM, respectively. In the data set on Trypanosoma cruzi [2], the 90% effect concentration (IC90) was found to be 934 nM.
In the same order, the values of `O=C(c1ccccc1)N1CC(CNC(c2ccc(C(F)(F)F)cc2)c2cccnc2)C1` (stereo not drawn) are 67 nM, more than 100 µM and 142 nM.
On the same counts, the results for `O=C(c1cc[nH]n1)N1CCC(NC(c2ccc(C(F)(F)F)cc2)c2cccnc2)CC1` (stereo not drawn) are 294 nM, more than 100 µM and 570 nM.
In the same order, the values of `Cc1ncsc1C(=O)N1CCC(NC(c2ccc(C(F)(F)F)cc2)c2cncs2)CC1` (stereo not drawn) are 68.5 nM, more than 100 µM and 240 nM.
Regarding `N#Cc1ccnc(N2CCC(NC(c3ccc(C(F)(F)F)cc3)c3cccnc3)CC2)n1` (stereo not drawn), the IC50 in the data set on Trypanosoma cruzi [1] was found to be 31 nM; in data set [3], 49.7 µM. In the data set on Trypanosoma cruzi [2], this molecule gave a concentration for an effect of 90% (IC90) of 120 nM.
In the same order, the values of `Fc1cc(Cl)ccc1C(NC1CCN(c2c(F)cccc2F)CC1)c1cccnc1` (stereo not drawn) are 12.5 nM, 56.3 µM and 33.5 nM.
On the same counts, the results for `Cn1cc(C(=O)N2CCC(NC(c3ccc(C(F)(F)F)cc3)c3cccnc3)CC2)c(C(F)(F)F)n1` (stereo not drawn) are 99.5 nM, 77.1 µM and 280 nM.
On the same counts, the results for `Cn1cc(C(=O)NC2CCN(C(c3ccc(C#N)cc3)c3cccnc3)CC2)c(C(F)(F)F)n1` (stereo not drawn) are 28.5 nM, more than 100 µM and 77.5 nM.
On to `O=C(c1ccccc1)N1CCC(NC(c2ccc(C(F)(F)F)cc2)c2cncs2)CC1` (stereo not drawn), for which the IC50 was determined as 33 nM in the data set with Trypanosoma cruzi [1] and 76.1 µM in data set [3]. The concentration for an effect of 90% (IC90) in the data set with Trypanosoma cruzi [2] was found to be 106 nM.
In the same order, the values of `Cn1cc(C(=O)NC2CCN(C(c3ccc(C#N)cc3)c3cccnc3)CC2)cn1` (stereo not drawn) are 169 nM, 54.3 µM and 300 nM.
In the case of `OC(c1ccc(C(F)(F)F)cc1)(c1cncc(F)c1)c1ccc(Cl)cc1F` (stereo not drawn), the 50% inhibitory concentration (IC50) in the data set with Trypanosoma cruzi [1] worked out at 194 nM; in data set [3], 51.4 µM. Also, the 90% effect level in the data set on Trypanosoma cruzi [2] (IC90) was put at 422 nM.
On the same counts, the results for `COc1cncc(C(O)(c2ccc(C(F)(F)F)cc2)c2ccc(Cl)cc2F)c1` (stereo not drawn) are 122 nM, 67.4 µM and 318 nM.
For `Cn1cc(C(=O)N2CCC(NC(c3ccc(C(F)(F)F)cc3)c3cccnc3)CC2)cn1` (stereo not drawn), the IC50 was 384 nM in the data set on Trypanosoma cruzi [1] and more than 100 µM in data set [3]. This molecule returned a 90% effect concentration (IC90) in the data set with Trypanosoma cruzi [2] of 655 nM.
On the same counts, the results for `Cc1cc(C(=O)NC2CCN(C(c3ccc(C#N)cc3)c3cccnc3)CC2)n(C(C)(C)C)n1` (stereo not drawn) are 62 nM, more than 100 µM and 220 nM.
On the same counts, the results for `Cn1ccnc1C(=O)NC1CCN(C(c2ccc(C#N)cc2)c2cccnc2)CC1` (stereo not drawn) are 239 nM, more than 100 µM and 482 nM.
In the same order, the values of `CC(C)(C)C(=O)N1CCC(NC(c2ccc(C(F)(F)F)cc2)c2cncs2)CC1` (stereo not drawn) are 34 nM, more than 100 µM and 94 nM.
